Test results: patent publication US9593146B2, “CD44v6-derived peptides for treating metastasizing cancer” (AMCURE GMBH, priority 2012, dated 2017)

How the values were obtained:
Met and ERK = assay: HGF induced activation of Met and ERK in L3.6pl cells (Western blot); type: cell-based, human; conditions: L3.6pl cells, peptide prior to induction with 10 ng/ml HGF
Experimental: Serum-starved cells (24 hours) were induced with the growth factor HGF (10 ng/mL) at 37° C. for 5 minutes. Where indicated, the cells were treated with peptides (100 ng/ml) prior to induction at 37° C. for 10 minutes (100 ng/mL CD44v6 peptide or control peptide). Following the induction with HGF, cells were washed with ice-cold phosphate-buffered saline (PBS). To detect activated Met and Erk, cells were lysed in sodium dodecyl sulfate (SDS)-sample buffer containing 100 mM dithiothreitol (DTT), boiled and subjected to western blot analysis using antibodies against phospho-Met and ERK. The loading controls were performed on the same blot after stripping (62.5 mM Tris, pH 6.8, 2% SDS, 0.8% DTT) by probing with the Met respectively ERK antibody. Blots were stained using the enhanced chemiluminescence system (Thermo Fisher Scientific, Schwerte, Germany). Bands in western blot analysis were quantified with the program Image J (National Institutes of Health).

BSp73ASs6 cells = assay: Apoptosis in established lung metastases (cleaved Caspase-3, cleaved Caspase-8), BSp73ASs6 rat model; type: in vivo; conditions: cleaved caspase-8 staining
Experimental: 7 μm thick paraffin sections were deparaffinized and rehydrated. For P-Met staining antigen unmasking was achieved by boiling the slides in 1 mM EDTA pH 8.0 followed by incubation for 15 minutes at a sub-boiling temperature, for CD31 staining the sections were treated with Proteinase K (8 μg/ml) for 10 min at 37° C. For immunofluorescence staining of P-Met, unspecific binding was blocked with 5% goat serum (DAKO, Glostrup, Denmark) (diluted in 1×PBS/0.3% Triton X-100) for 60 minutes. In the case of immunohistochemistry, endogenous peroxidases were at first blocked with 3% H2O2 in PBS followed by incubation with biotin blocking system (Dako, Glostrup, Denmark) and then unspecific binding was inhibited by incubation with 5% FCS in PBS. The sections were incubated with the P-Met antibody (D26, dilution 1:50 in 1×PBS/1% BSA/0.3% Triton X-100), Met antibody (C-28, dilution 1:50), GFP antibody (sc-101525, dilution 1:50) or CD31 antibody (5 μg/ml) over night or VFF18 (5 μg/ml) o/n at 4° C. After washing in PBS the sections were incubated with Alexa Fluor R 546 goat anti-rabbit (in case of immunofluorescence P-Met and Met staining, dilution 1:500) or a biotinylated secondary antibody (for immunohistochemical stainings rabbit anti-rat antibody for VFF18 and CD31, goat anti-rabbit for P-Met, cleaved Caspase-3 and cleaved Caspase-8 and rabbit anti-mouse for GFP, dilution 1:500) for 45 minutes. For DAB (3,3′-diaminobenzidine) staining the sections were treated with a streptavidin-peroxidase conjugate (Dako, Glostrup, Denmark) and developed with DAB substrate system (3,3′-diaminobenzidine; Biozol, Eching, Germany). For immunofluorescence DAPI was used for nuclear staining.
One hypothesis for the disappearance of metastases is that the peptides induce apoptosis of CD44v6-expressing metastatic cells in the secondary organs. In order to test this hypothesis, the experiment described above using the BSp73ASs6 cells was repeated. The cells were injected subcutaneously in syngeneic rats and the tumor was allowed to develop for three weeks. After that time the animals were separated in two groups of 10 animals that were injected either with the specific rat CD44v6 peptide or with the control peptide (mouse) every second day. One day following each injection of the peptide, the lungs of one animal were removed and apoptosis was measured using an antibody that detects the cleaved form of Caspase 3. […] Twelve days after injection of the CD44v6 peptide, less apoptosis was observed. […] From these experiments, it is concluded that the CD44v6 peptide induces apoptosis of metastatic cells.

HT29 cells = assay: HGF induced scattering of HT29 cells; type: cell-based, human; conditions: HT29, HGF 50 ng/ml 24 h, human peptides prior to induction (FIG. 17)
Experimental: FIG. 17: The human CD44 v6 specific peptides block HGF induced cell scattering and invasion into matrigel. Scattering of HT29 cells was determined in 24-well plates. First, 4.5×10^4 cells were seeded at 37° C.; after 24 h the cells were serum starved for additional 24 h. the cells were either left untreated (control) or later treated with HGF (50 ng/ml) for 24 h. Where indicated the cells were treated with the v6 specific peptide (human v6 5mer, 10mer, 14mer) or control peptide prior to induction with HGF for 30 min. Pictures were made using phase contrast microscopy. Magnification 40×.
A scatter assay was performed additionally. HT29 colon cancer cells were grown in medium containing 10% FCS. One day after seeding, the cells were starved. On the third day, the cells were induced with HGF (10 ng/ml) and pre-incubated with either no peptide, ctrl-peptides (SEQ ID No.: 15), non-pegylated v6-peptides (SEQ ID No.: 11) or the pegylated peptides, namely PEG-rat control peptide and PEG-rat CD44v6 peptide.
Scattering of HT29 cells was determined in 24-well plates. First, 4×10^5 cells were seeded at 37° C.; the cells were either left untreated or 48 h later treated with HGF (50 ng/ml) for 24 h or with PEGylated or non-PEGylated peptides (100 ng/ml) prior to HGF induction for 30 min.

4T1 cells = assay: Syngeneic orthotopic 4T1 mammary carcinoma model in BALB/c mice; type: in vivo
Experimental: FIG. 26: Treatment with the v6 14mer reduces growth of the primary tumor and macroscopic metastases formation in the lung. 1×10^6 murine 4T1 cells per mouse were diluted in 50 μl RPMI plus 50 μl Matrigel and injected into the 6th mammary fat pad of 10 female BALB/c mice. One week after the injection, the mice were either injected intraperitoneally with 20 μg of the murine v6 14mer dissolved in 100 μl PBS or with 20 μg of control peptide (rat v6 14mer) dissolved in 100 μl PBS. The injection was performed 3 times per week for two weeks. After 2 weeks the mice were sacrificed and the primary tumors and the lungs were extracted. A: Overall reduction of the tumor volume in the v6 peptide treated group. B: Immunofluorescent staining for the endothelial marker CD34 to monitor vascularization of the primary tumor. Graphic representation of the reduction of the total vessel area. C: The v6 peptides led to a reduction in macroscopic lung metastasis. The black arrows mark examples for metastases. The scale bar corresponds to a size of 1 cm. Statistical evaluation of the average number of lung metastases. Significance was calculated using Student's t test: p*<0.01; **p<0.005. Each group consisted of 5 animals.
The effect of the CD44v6 14mer was tested in a syngeneic mouse model by orthotopic injection of the murine mammary carcinoma cells 4T1. 4T1 cells were originally derived from a spontaneously arising BALB/c mammary tumor. When introduced orthotopically, 4T1 cells grow rapidly at the primary site and form metastases in the lung and the lymph nodes within a period of 3-6 weeks. The tumor growth and metastatic spreading of 4T1 cells in BALB/c mice very closely mimics human breast cancer stage IV.
The 4T1 cells were injected orthotopically into the 6th mammary fat pad. Two groups of 5 animals each with the implanted tumor cells were then used for the experiment. One group was treated with the v6 14mer peptide, one with a control (rat) peptide. The injection of the peptide was performed 3 times per week and planned for three to four weeks but had to be stopped after two weeks as the control group suffered from large tumors.

[1] = murine v6 14mer 20 μg i.p. 3 times per week for two weeks

## KEQWFGNRWHEGYR [human 14mer, human CD44v6 14mer peptide]
Met and ERK
  Phosphorylation of Met and ERK: inhibited
BSp73ASs6 cells
  activation of caspase-8 in lung metastases: A kinetic of activation of caspase-8 similar to the one obtained for caspase-3
HT29 cells
  HGF induced scattering or invasion through the extracellular matrix: prevented completely scattering or invasion through the extracellular matrix
4T1 cells; 20 μg i.p. 3 times per week for two weeks, 5 animals per group
  macroscopic lung metastases per animal: three animals showed no macroscopic metastases at all, whereas two animals had only one metastase
4T1 cells; [1]
  primary tumor size: significant decrease of tumor size
  total number of blood vessels (anti-CD34 staining): significantly reduced
